Assay results taken from patent US10865203B2, “Ligands selective to alpha 6 subunit-containing GABAA receptors and their methods of use” (UWM Research Foundation, Inc., priority 2015, dated 2020).

Target: T1, α1,4,6β3δ receptors (Rattus norvegicus, UniProt P30191+P63079)
T1 construct: expressed in transfected cells; host or cells: Xenopus laevis oocytes injected with subunit mRNA (3:1:5)
Assay: Electrophysiology in Xenopus oocytes, delta-containing receptors
Assay type: cell-based
Conditions: measured at EC20
Procedure: Mature female Xenopus laevis (Nasco, Fort Atkinson, Wis., USA) were anaesthetized in a bath of ice-cold 0.17% Tricain (Ethyl-m-aminobenzoat, Sigma-Aldrich, St. Louis, Mo., USA) before decapitation and transfer of the frog's ovary to ND96 medium (96 mM NaCl, 2 mM KCl, 1 mM MgCl2, 5 mM HEPES; pH 7.5). Following incubation in 1 mg/mL collagenase (Sigma-Aldrich, St. Louis, Mo., USA) for 30 min, stage 5 to 6 oocytes were singled out of the ovary and defolliculated using a platinum wire loop. Oocytes were stored and incubated at 18° C. in NDE medium (96 mM NaCl, 2 mM KCl, 1 mM MgCl2, 5 mM HEPES, 1.8 mM CaCl2; pH 7.5) that was supplemented with 100 U per mL-1 penicillin, 100 μg per mL-1 streptomycin and 2.5 mM pyruvate. Oocytes were injected with an aqueous solution of mRNA. A total of 2.5 ng of mRNA per oocyte was injected. Subunit ratio was 1:1:5 for αxβγ2 (x=1, 2, 3, 5) and 3:1:5 for α4/6β3γ2 and αβδ receptors. Injected oocytes were incubated for at least 36 h before electrophysiological recordings. Oocytes were placed on a nylon-grid in a bath of NDE medium. For current measurements, the oocytes were impaled with two microelectrodes (2-3MΩ), which were filled with 2 M KCl. The oocytes were constantly washed by a flow of 6 mL per min-1 NDE that could be switched to NDE containing GABA and/or drugs. […] All recordings were performed at room temperature at a holding potential of −60 mV using a Warner OC-725C TEV (Warner Instrument, Hamden, Conn., USA) or a Dagan CA-1B Oocyte Clamp or a Dagan TEV-200A TEV (Dagan Corporation, Mineapolis, Minn., USA). Data were digitized using a Digidata 1322A or 1550 data acquisition system (Axon Instruments, Union City, Calif., USA), recorded using Clampex 10.5 software (Molecular Devices, Sunnyvale, Calif., USA), and analyzed using Clampfit 10.5 and GraphPad Prism 6.0 (La Jolla, Calif., USA) software. Concentration-response data were fitted using the Hill equation. Data are given as mean±SEM from at least three oocytes of two batches.
For selected test compounds full dose response curves were recorded in α1-6β3γ2 receptors. For selected compounds, dose response curves in additional receptor subtypes (α1, 4, 6β3δ, α6β1, 2γ2, α1-6β3) were also obtained. For a wider panel of compounds, a two point screening pharmacology was obtained at 1 and 10 μM compound concentrations.

T1 sequence (P30191 20-453): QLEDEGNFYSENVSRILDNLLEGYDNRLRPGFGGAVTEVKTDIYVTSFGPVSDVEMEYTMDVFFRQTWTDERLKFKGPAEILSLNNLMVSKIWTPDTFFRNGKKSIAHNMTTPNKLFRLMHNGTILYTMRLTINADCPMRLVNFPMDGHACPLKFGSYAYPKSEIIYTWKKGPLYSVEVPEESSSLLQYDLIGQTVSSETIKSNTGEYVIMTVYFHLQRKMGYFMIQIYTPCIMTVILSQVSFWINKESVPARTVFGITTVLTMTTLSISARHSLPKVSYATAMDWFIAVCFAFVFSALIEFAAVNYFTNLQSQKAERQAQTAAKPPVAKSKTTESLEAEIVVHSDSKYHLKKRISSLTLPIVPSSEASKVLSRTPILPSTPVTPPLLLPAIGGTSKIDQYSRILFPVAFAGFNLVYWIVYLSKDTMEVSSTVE
T1 sequence (P63079 26-473): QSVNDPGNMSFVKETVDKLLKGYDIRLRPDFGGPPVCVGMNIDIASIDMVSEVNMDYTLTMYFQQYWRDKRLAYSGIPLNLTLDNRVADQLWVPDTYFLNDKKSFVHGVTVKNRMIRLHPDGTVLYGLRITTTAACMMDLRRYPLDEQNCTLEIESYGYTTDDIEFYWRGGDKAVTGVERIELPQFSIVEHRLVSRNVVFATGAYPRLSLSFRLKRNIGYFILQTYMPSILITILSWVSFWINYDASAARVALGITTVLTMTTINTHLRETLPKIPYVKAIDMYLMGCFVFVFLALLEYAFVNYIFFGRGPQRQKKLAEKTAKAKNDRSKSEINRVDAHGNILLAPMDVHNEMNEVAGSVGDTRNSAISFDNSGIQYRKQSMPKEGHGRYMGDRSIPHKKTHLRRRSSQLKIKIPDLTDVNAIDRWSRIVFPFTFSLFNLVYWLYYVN
T1 sequence (P18506 25-449 partner): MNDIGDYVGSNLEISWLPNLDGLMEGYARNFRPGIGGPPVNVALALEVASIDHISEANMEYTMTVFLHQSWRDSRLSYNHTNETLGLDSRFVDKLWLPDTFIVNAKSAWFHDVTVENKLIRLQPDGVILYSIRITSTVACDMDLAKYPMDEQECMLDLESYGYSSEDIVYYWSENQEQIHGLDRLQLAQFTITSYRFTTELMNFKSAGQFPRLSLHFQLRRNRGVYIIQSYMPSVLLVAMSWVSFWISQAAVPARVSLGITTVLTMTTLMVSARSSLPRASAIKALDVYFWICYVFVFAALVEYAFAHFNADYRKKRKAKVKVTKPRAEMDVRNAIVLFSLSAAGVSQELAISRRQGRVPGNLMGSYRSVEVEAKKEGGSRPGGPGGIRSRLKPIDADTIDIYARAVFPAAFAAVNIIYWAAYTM

SMILES: [2H]C([2H])([2H])Oc1ccc2c3nn(-c4ccc(OC)nc4)c(=O)c-3c[nH]c2c1 [DK-I-86-1, 7-Methoxy-d3-2-(6-methoxypyridin-3-yl)-2,5-dihydro-3H-pyrazolo[4,3-c]quinolin-3-one]
- Receptor potentiation in the α6β3δ receptor: modulated
